Reference: patent US8227422B2, “Peptides and compounds that bind to a receptor” (Glaxosmithkline LLC, priority 1996, dated 2012)
“And” between values parts separate entries of the source, which are not always exact repeats. Equal values may be shown once. Read-outs that look alike come from different tables or passages of the source. Where a SMILES comes first, the peptide text is derived from it.

Columns and labels:
[1] = molecular target: T1, TPO receptor (Homo sapiens, UniProt P40238); experiment: Microphysiometer assay: rate of acidification of extracellular medium on TPO receptor stimulation; assay type: cell-based
T1 sequence (P40238 26-635): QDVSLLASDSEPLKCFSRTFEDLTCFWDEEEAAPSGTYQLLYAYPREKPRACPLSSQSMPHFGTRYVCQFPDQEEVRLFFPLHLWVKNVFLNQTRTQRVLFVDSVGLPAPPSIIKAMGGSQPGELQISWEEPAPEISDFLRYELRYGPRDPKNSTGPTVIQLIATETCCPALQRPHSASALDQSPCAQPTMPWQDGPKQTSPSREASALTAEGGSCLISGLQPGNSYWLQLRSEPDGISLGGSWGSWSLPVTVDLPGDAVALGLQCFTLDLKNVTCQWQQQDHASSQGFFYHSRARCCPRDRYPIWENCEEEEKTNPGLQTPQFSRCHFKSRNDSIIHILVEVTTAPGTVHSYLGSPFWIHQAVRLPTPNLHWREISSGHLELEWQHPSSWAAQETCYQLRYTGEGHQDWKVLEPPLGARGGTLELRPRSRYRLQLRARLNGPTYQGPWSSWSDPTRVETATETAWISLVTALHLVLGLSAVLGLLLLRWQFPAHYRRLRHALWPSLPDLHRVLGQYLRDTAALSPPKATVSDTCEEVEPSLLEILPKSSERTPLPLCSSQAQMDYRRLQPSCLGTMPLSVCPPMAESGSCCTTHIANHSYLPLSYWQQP
Description: In this example cyclized compounds were subjected to three assays. […] Finally, a microphysiometer (Molecular Devices Corp.) assay was performed. […] The ranges for EC50 are symbolically indicated as for IC50 described above.

[2] = molecular target: T2, TPO-R (Homo sapiens, UniProt P40238); experiment: Competition binding assay (equilibrium binding ELISA, MBP-TPO156 tracer) on immobilized TPO-R; conditions: read-out: IC50
T2 construct: made in house
T2 sequence (P40238 26-491 limits assumed): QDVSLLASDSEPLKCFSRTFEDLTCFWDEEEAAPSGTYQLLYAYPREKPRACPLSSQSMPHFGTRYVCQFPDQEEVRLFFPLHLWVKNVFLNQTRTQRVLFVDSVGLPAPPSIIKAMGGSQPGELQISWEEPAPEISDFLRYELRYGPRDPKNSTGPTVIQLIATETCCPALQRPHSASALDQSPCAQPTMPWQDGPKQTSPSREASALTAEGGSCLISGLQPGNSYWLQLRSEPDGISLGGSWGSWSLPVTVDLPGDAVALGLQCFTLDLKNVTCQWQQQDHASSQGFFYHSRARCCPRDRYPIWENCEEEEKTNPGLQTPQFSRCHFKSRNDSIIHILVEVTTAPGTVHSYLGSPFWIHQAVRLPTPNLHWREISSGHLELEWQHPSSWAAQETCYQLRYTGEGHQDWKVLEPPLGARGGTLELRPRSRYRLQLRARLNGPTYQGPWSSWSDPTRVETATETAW

[3] = molecular target: T3, human TPO-R (transfected Ba/F3 cells) (Homo sapiens, UniProt P40238); experiment: Thrombopoietin dependent cell proliferation assay (MTT), TPO-R transfected Ba/F3 cells; assay type: cell-based
T3 construct: Murine IL-3 dependent Ba/F3 cells were transfected with full length human TPO-R; expressed in transfected cells; host or cells: murine Ba/F3 cells
T3 sequence (P40238 26-635): T1 sequence (P40238 26-635)

[4] = test system: marrow cells of Balb/C mice (mouse receptor); experiment: Mouse marrow cells in liquid culture, AChE-positive megakaryocyte outgrowth; assay type: cell-based; conditions: for Response (AChE-positive megakaryocytes): 7 days liquid culture
Description: To assess the feasibility of mice as a convenient test species, several in vitro experiments, designed to measure the activity of the test compounds on the mouse receptor, have been done. First, marrow cells, harvested from the femurs of 8 to 9 week one Balb/C mice, were incubated for 7 days in liquid culture with either rhuTPO or various concentrations of the test peptides. At the end of the incubation period, the cultures were concentrated by Cytospin, stained for acetylcholinesterase (AChE, a diagnostic of mouse megakaryocytes), and counted by microscopic analysis. One (X) nM rhuTPO gave rise to the outgrowth of very large (>40 um) non-adherent cells that stain for AChE. These cells appear to be mature megakaryocytes. From an initial seeding of 10^6 total marrow cells/ml (in 50 ml cultures) an estimated 1 to 2×10^6 megakaryocytes developed. This responce to TPO was designated as “maximal”. Control cultures containing no added growth factors produced very few AChE-positive cells. […] This finding was the first evidence that this peptide family is active on the murine receptor. In a second experiment, marrow cells were harvested and cultured in semi-solid medium (methylcellulose) containing either no factors, 1 nM rhuTPO, or 10 uM Peptide A. After 7 days in culture, colonies of large cell (presumed to be megakaryocytes) were counted and grouped into small colonies (3-5 cells) or large colonies (greater than 6 cells). TPO and the test peptides both produced substantially more colonies of both sized than did the negative control cultures.

[5] = test system: marrow cells (Mk precursor cell population); experiment: Mouse marrow cells in semi-solid medium (methylcellulose), colonies of large cells; assay type: cell-based; conditions: 1 nM TPO; 7 days in methylcellulose; replicates #1-1 to #2-2
Description: To assess the feasibility of mice as a convenient test species, several in vitro experiments, designed to measure the activity of the test compounds on the mouse receptor, have been done. First, marrow cells, harvested from the femurs of 8 to 9 week one Balb/C mice, were incubated for 7 days in liquid culture with either rhuTPO or various concentrations of the test peptides. At the end of the incubation period, the cultures were concentrated by Cytospin, stained for acetylcholinesterase (AChE, a diagnostic of mouse megakaryocytes), and counted by microscopic analysis. One (X) nM rhuTPO gave rise to the outgrowth of very large (>40 um) non-adherent cells that stain for AChE. These cells appear to be mature megakaryocytes. From an initial seeding of 10^6 total marrow cells/ml (in 50 ml cultures) an estimated 1 to 2×10^6 megakaryocytes developed. This responce to TPO was designated as “maximal”. Control cultures containing no added growth factors produced very few AChE-positive cells. […] In a second experiment, marrow cells were harvested and cultured in semi-solid medium (methylcellulose) containing either no factors, 1 nM rhuTPO, or 10 uM Peptide A. After 7 days in culture, colonies of large cell (presumed to be megakaryocytes) were counted and grouped into small colonies (3-5 cells) or large colonies (greater than 6 cells). […]

[6] = Table 4, cyclized compounds, microphysiometer, read-out: EC50 (nM) Microonys
[7] = Table 4, cyclized compounds, read-out: EC50 (nM) Proliferation

EC50 [1, 6] [nM]	IC50 ([2]; Table 4, cyclized compounds) [µM]	EC50 [3, 7] [nM]	Molecule	other results
< 200000	≤ 200	< 200000	CC[C@H](C)[C@@H]1NC(=O)[C@H](Cc2c[nH]c3ccccc23)NC(=O)[C@H](CCC(=O)O)NC(=O)[C@H](CCCNC(=N)N)NC(=O)[C@H](CC(C)C)NC(=O)[C@H]([C@@H](C)O)NC(=O)[C@@H]2CCCN2C(=O)CNC(=O)[C@H](CC(=O)O)NC(=O)[C@H](C)NC(=O)CC[C@@H](C(N)=O)NC(=O)[C@H](Cc2ccccc2)NC(=O)[C@H](CO)NC1=O (HELM PEPTIDE1{A.D.G.P.T.L.R.E.W.I.S.F.E.[am]}$PEPTIDE1,PEPTIDE1,1:R1-13:R3$$$V2.0)	–
< 500	≤ 0.5	< 500	CC[C@H](C)[C@@H]1NC(=O)[C@H](Cc2c[nH]c3ccccc23)NC(=O)[C@H](CCC(=O)O)NC(=O)[C@H](CCCNC(=N)N)NC(=O)[C@H](CC(C)C)NC(=O)[C@H]([C@@H](C)O)NC(=O)[C@@H]2CCCN2C(=O)CNC(=O)[C@H](CC(=O)O)NC(=O)[C@H](C)NC(=O)[C@@H](N)C(C)(C)SSC[C@@H](C(N)=O)NC(=O)[C@H](Cc2ccccc2)NC(=O)[C@H](CO)NC1=O (HELM PEPTIDE1{[Pen].A.D.G.P.T.L.R.E.W.I.S.F.C.[am]}$PEPTIDE1,PEPTIDE1,1:R3-14:R3$$$V2.0)	–
< 200000	≤ 0.5	< 500	CC[C@H](C)[C@@H]1NC(=O)[C@H](Cc2c[nH]c3ccccc23)NC(=O)[C@H](CCC(=O)O)NC(=O)[C@H](CCCNC(=N)N)NC(=O)[C@H](CC(C)C)NC(=O)[C@H]([C@@H](C)O)NC(=O)[C@@H]2CCCN2C(=O)CNC(=O)[C@H](CC(=O)O)NC(=O)[C@H](C)NC(=O)C(c2ccccc2)SC[C@@H](C(N)=O)NC(=O)[C@H](Cc2ccccc2)NC(=O)[C@H](CO)NC1=O (some centres unmarked) (HELM PEPTIDE1{A.D.G.P.T.L.R.E.W.I.S.F.C.[am]}|CHEM1{[O=C(C(c1ccccc1)[*:2])[*:1]]}$PEPTIDE1,CHEM1,1:R1-1:R1|PEPTIDE1,CHEM1,13:R3-1:R2$$$V2.0)	–
< 200000	≤ 0.5	< 200000	CC[C@H](C)[C@@H]1NC(=O)[C@H](Cc2c[nH]c3ccccc23)NC(=O)[C@H](CCC(=O)O)NC(=O)[C@H](CCCNC(=N)N)NC(=O)[C@H](CC(C)C)NC(=O)[C@H]([C@@H](C)O)NC(=O)[C@@H]2CCCN2C(=O)CNC(=O)[C@H](CC(=O)O)NC(=O)[C@H](C)NC(=O)[C@H](N)C(C)(C)SSC[C@H](C(N)=O)NC(=O)[C@H](Cc2ccccc2)NC(=O)[C@H](CO)NC1=O (HELM PEPTIDE1{[CC(C)(S[*:3])[C@@H](N)C(=O)[*:2]].A.D.G.P.T.L.R.E.W.I.S.F.[dC].[am]}$PEPTIDE1,PEPTIDE1,1:R3-14:R3$$$V2.0)	–

Further lines, the molecule ahead of its results:

Molecule	EC50 [1, 6] [nM]	IC50 ([2]; Table 4, cyclized compounds) [µM]	EC50 [3, 7] [nM]	other results
CC[C@H](C)[C@@H]1NC(=O)[C@H](Cc2c[nH]c3ccccc23)NC(=O)[C@H](CCC(=O)O)NC(=O)[C@H](CCCNC(=N)N)NC(=O)[C@H](CC(C)C)NC(=O)[C@H]([C@@H](C)O)NC(=O)[C@@H]2CCCN2C(=O)CNC(=O)[C@H](CC(=O)O)NC(=O)[C@H](C)NC(=O)CSCC[C@@H](C(N)=O)NC(=O)[C@H](Cc2ccccc2)NC(=O)[C@H](CO)NC1=O (HELM PEPTIDE1{[O=C(C[*:3])[*:2]].A.D.G.P.T.L.R.E.W.I.S.F.[O=C([C@H](CCS[*:3])N[*:1])[*:2]].[am]}$PEPTIDE1,PEPTIDE1,1:R3-14:R3$$$V2.0)	< 200000	≤ 0.5	< 200000	–
S.A. alone: streptavidin alone [reference compound]	–	–	–	Response (AChE-positive megakaryocytes) ([4]; 1000 nM (putative 1:4 complex), maximal = 25–30% AChE staining cells): none
CC[C@H](C)[C@@H]1NC(=O)[C@H](Cc2c[nH]c3ccccc23)NC(=O)[C@H](CCC(=O)O)NC(=O)[C@H](CCCNC(=N)N)NC(=O)[C@H](CC(C)C)NC(=O)[C@H]([C@@H](C)O)NC(=O)[C@@H]2CCCN2C(=O)CNC(=O)[C@H](CC(=O)O)NC(=O)[C@H](C)NC(=O)[C@@H](N)CCSSCC[C@@H](C(N)=O)NC(=O)[C@H](Cc2ccccc2)NC(=O)[C@H](CO)NC1=O (HELM PEPTIDE1{[N[C@@H](CCS[*:3])C(=O)[*:2]].A.D.G.P.T.L.R.E.W.I.S.F.[O=C([C@H](CCS[*:3])N[*:1])[*:2]].[am]}$PEPTIDE1,PEPTIDE1,1:R3-14:R3$$$V2.0)	< 200000	≤ 0.5	< 200000	–
CC[C@H](C)[C@H](NC(=O)[C@H](Cc1c[nH]c2ccccc12)NC(=O)[C@H](CCC(=O)O)NC(=O)[C@H](CCCNC(=N)N)NC(=O)[C@H](CC(C)C)NC(=O)[C@@H](NC(=O)[C@@H]1CCCN1C(=O)CNC(=O)[C@H](CC(=O)O)NC(=O)[C@H](C)NC(=O)[C@@H](N)CSSC[C@H](N)C(=O)N[C@@H](C)C(=O)N[C@@H](CC(=O)O)C(=O)NCC(=O)N1CCC[C@H]1C(=O)N[C@H](C(=O)N[C@@H](CC(C)C)C(=O)N[C@@H](CCCNC(=N)N)C(=O)N[C@@H](CCC(=O)O)C(=O)N[C@@H](Cc1c[nH]c2ccccc12)C(=O)N[C@H](C(=O)N[C@@H](CO)C(=O)N[C@@H](Cc1ccccc1)C(N)=O)[C@@H](C)CC)[C@@H](C)O)[C@@H](C)O)C(=O)N[C@@H](CO)C(=O)N[C@@H](Cc1ccccc1)C(N)=O (HELM PEPTIDE1{C.A.D.G.P.T.L.R.E.W.I.S.F.[am]}|PEPTIDE2{C.A.D.G.P.T.L.R.E.W.I.S.F.[am]}$PEPTIDE1,PEPTIDE2,1:R3-1:R3$$$V2.0)	–	–	–	EC50 ([1]; Table 7, dimer compounds, read-out: EC50 (nM) Microonys.): < 500 nM; IC50 ([2]; Table 7, dimer compounds): ≤ 0.5 µM; EC50 ([3]; Table 7, dimer compounds, read-out: EC50 (nM) Prolif.): < 500 nM
TPO: recombinant human TPO (thrombopoietin)	–	–	–	Response (AChE-positive megakaryocytes) ([4]; 1 nM): “maximal”; megakaryocytes developed ([4]; One (X) nM rhuTPO, initial seeding 10^6 total marrow cells/ml (50 ml cultures), 7 days): 1 to 2×10^6 megakaryocytes; colonies of 3–5 large cells [5]: 15 and 12 and 16 and 13; colonies of 6–12 large cells [5]: 6 and 1 and 8 and 3
CC[C@H](C)[C@@H]1NC(=O)[C@H](Cc2c[nH]c3ccccc23)NC(=O)[C@H](CCC(=O)O)NC(=O)[C@H](CCCNC(=N)N)NC(=O)[C@H](CC(C)C)NC(=O)[C@H]([C@@H](C)O)NC(=O)[C@@H]2CCCN2C(=O)CNC(=O)[C@H](CC(=O)O)NC(=O)[C@H](C)NC(=O)[C@@H](N)CSSC[C@@H](C(N)=O)NC(=O)[C@H](CC2CCCCC2)NC(=O)[C@H](CO)NC1=O [F-CHA] (HELM PEPTIDE1{C.A.D.G.P.T.L.R.E.W.I.S.[Cha].C.[am]}$PEPTIDE1,PEPTIDE1,1:R3-14:R3$$$V2.0; N-terminus and C-terminus assumed)	–	–	–	EC50 ([1]; Table 5, value in parentheses, read-out: EC50 (nM), microphysiometer results given in parentheses): < 500 nM; IC50 ([2]; Table 5): ≤ 0.5 µM; EC50 ([3]; Table 5, substitutions in cyclized compound, read-out: EC50 (nM) Cell Prolif.): < 500 nM
